These results are taken from paper PMC10819458, “Using Pharmacokinetic–Pharmacodynamic Modeling to Study the Main Active Substances of the Anticancer Effect in Mice from Panax ginseng–Ophiopogon japonicus” (Molecules, 2024).

Usually Cmax stands for the highest concentration seen after dosing.

Like-named read-outs stand apart in the source and are kept apart here.

The data set can be described thus: Lung-tissue pharmacokinetics of PG–OJ components in tumor-bearing mice (UPLC–MS/MS). Format: in vivo, BALB/c nude male mice. To be noted: for MRT last: read-out: MRT(0–t) (converted). The source says: This study employed Ultra-Performance Liquid Chromatography–Mass Spectrometry (UPLC–MS/MS) to examine the pharmacokinetic properties of 20 bioactive components in a cell-derived xenograft (CDX) model following oral administration of a 10.2 g/kg PG–OJ extract.
Healthy BALB/c nude male mice (weight: 18–21 g) were purchased from Beijing Huafukang Biotechnology Co., Ltd. (Beijing, China, License Number: SCXK (Jing) 2021-0006). After 3 days of acclimatization, the mice were randomly divided into the control group (CG), model group (MG), and the combined-administration group of P. ginseng and O. japonicus (HM1-HM13) ([…], four-fold clinical-equivalent doses). Subsequently, except for the CG, 0.2 mL (approximately 2 × 10^7 cells) of A549 cell suspension was aspirated with a 1 mL syringe and injected into the right axillary fossa of the model group and drug-administration-group mice. The control-group mice were injected with an equal volume of PBS at the same location. The tumor diameter was measured daily using a caliper. The model was successful when the tumor diameter > 3 mm. The combined-administration group of P. ginseng and O. japonicus was given the corresponding drug orally, once a day, with 0.2 mL/mouse each time. The control group and the model group mice were given the same volume of distilled water, continuously orally for 21 days. During this period, the body weight and tumor volume of the mice were recorded. At the end of the last administration, the mice were […] 0.083, 0.167, 0.25, 0.5, 0.75, 1, 2, 3, 4, 6, 8, 12, 24 h later. After injecting 0.1% pentobarbital sodium, blood was collected from the eye-socket vein, the mice were decapitated, and the tumor and lung tissues were carefully removed.
After homogenizing 50 mg of right-lung-tissue sample, 2 mL of acetonitrile was added to precipitate proteins. The mixture was oscillated for 2 min and then centrifuged for 10 min (12,000 rpm, 4 °C). The supernatant from the new centrifuge tube was collected and dried with nitrogen at room temperature. Finally, the supernatant was redissolved in 50 μL of acetonitrile solution containing 0.1% formic acid. After oscillating for 1 min, another centrifugation step was performed, and the resulting supernatant was used for analysis.
Samples were analyzed on the Vanquish UPLC System (Thermo, Waltham, MA, USA). The Agilent C18 column (4.6 × 150 mm, 4 μm, PN:693970-902T) was selected. The mobile phase was composed of 0.1% formic acid aqueous solution (A) and 0.1% formic acid acetonitrile solution (B). The procedure of gradient elution was as follows: 0–10 min, 95–75% A; 10–25 min, 75–45% A; 25–40 min, 45–30% A; 40–50 min, 30–5% A; 55–55.1 min, 5–95% A; 55.1–60 min, 95% A. The column temperature was set to 30 °C with the flow rate of 0.3 mL/min and the injection volume of 3.0 μL. The mass-spectrometry detection with negative-ion mode was carried out using an Orbitrap Exploris 120 Mass Spectrometer (Thermo, Waltham, MA, USA) and Electrospray ionization (ESI). The sheath-gas-flow rate was […] and the auxiliary-gas-flow rate was […]. The capillary temperature was 325 °C, and the resolution was 120,000 in full scan mode with the mass scan range of 80~1500 m/z. The secondary cracking was performed with HCD at a collision voltage of 30 eV, and unnecessary MS/MS information was removed using the dynamic exclusion method.

Where [1] appears, read: lung tissue, A549 tumor-bearing mice, intragastric PG–OJ extract 10.2 g/kg (6.8 g/kg elsewhere in the source), mean ± SD, n = 6.

Consider `CC(C)=CCC[C@](C)(O)[C@H]1CC[C@]2(C)[C@@H]1[C@H](O)C[C@@H]1[C@@]3(C)CC[C@H](O)C(C)(C)[C@@H]3[C@@H](O[C@@H]3O[C@H](CO)[C@@H](O)[C@H](O)[C@H]3O[C@@H]3O[C@@H](C)[C@H](O)[C@@H](O)[C@H]3O)C[C@]12C` [Ginsenoside Rg2], for which the half-life (male, BALB/c nude, mouse, in vivo, po) was determined as 3.58 ± 0.103 h. For the same compound, the Tmax (male, BALB/c nude, mouse, in vivo, po, Tmax) was 0.25 h. Further, under “mouse, in vivo, po”, the “AUC(0–∞) compared with other components” value is reported as “significantly higher than those of other components” and the “time to reach maximum concentration (Cmax) after administration” value (“time to reach maximum concentration” below) is recorded as not above 15 min.

In the case of `CC(C)=CCC[C@](C)(O)[C@H]1CC[C@]2(C)[C@@H]1[C@H](O)C[C@@H]1[C@@]3(C)CC[C@H](O[C@@H]4O[C@H](CO)[C@@H](O)[C@H](O)[C@H]4O[C@@H]4O[C@H](CO)[C@@H](O)[C@H](O)[C@H]4O)C(C)(C)[C@@H]3CC[C@]12C` [Ginsenoside Rg3], under setting [1], the “AUC(0–t)” value stood at 1879.87 ± 53.24 ng·min/g, the “AUC(0–∞)” value is listed as 14,133.43 ± 3134.88 ng/g·min, the Cmax came out at 4.75 ± 0.12 ng/g and the “MRT(0–t)” value came to 3.8352 ± 0.0448 h. Under setting [1], the T1/2 is 39.6943 ± 9.3722 h and the Tmax is 0.0833 ± 0 h.

In the case of `CC(C)=CC/C=C(\C)[C@H]1CC[C@]2(C)[C@@H]1[C@H](O)C[C@@H]1[C@@]3(C)CC[C@H](O[C@@H]4O[C@H](CO)[C@@H](O)[C@H](O)[C@H]4O[C@@H]4O[C@H](CO)[C@@H](O)[C@H](O)[C@H]4O)C(C)(C)[C@@H]3CC[C@]12C` [Ginsenoside Rg5], under setting [1], the “AUC(0–t)” value was 1,342,117.43 ± 45,675.73 ng/g·min and the “AUC(0–∞)” value was 1,372,202.28 ± 48,963.33 ng/g·min. Besides, the “AUC(0–∞) compared with other components” value (lung tissue, oral PG–OJ extract, in words) is reported as “significantly higher than those of other components”. In addition, the Tmax (male, BALB/c nude, mouse, lung tissue, po, 10.2 g/kg, lung tissue, A549 tumor-bearing mice, intragastric PG–OJ extract 10.2 g/kg (6.8 g/kg elsewhere in the source), mean ± SD, n = 6, read-out: Tmax (converted)) was 4 h. Besides, for the setting “male, BALB/c nude, mouse, lung tissue, po, 10.2 g/kg, lung tissue, oral PG–OJ extract, read-out: time to reach peak concentration”, the Tmax was 12 h. Where the note is “male, BALB/c nude, mouse, po, lung tissue, A549 tumor-bearing mice, intragastric PG–OJ extract 10.2 g/kg (6.8 g/kg elsewhere in the source), mean ± SD, n = 6, read-out: Cmax”, the Cmax came to 7970 ± 442 ng/g. The MRT last (male, BALB/c nude, mouse, po, lung tissue, A549 tumor-bearing mice, intragastric PG–OJ extract 10.2 g/kg (6.8 g/kg elsewhere in the source), mean ± SD, n = 6) was 3.07 h. The half-life (male, BALB/c nude, mouse, po, lung tissue, A549 tumor-bearing mice, intragastric PG–OJ extract 10.2 g/kg (6.8 g/kg elsewhere in the source), mean ± SD, n = 6, read-out: T1/2) was 2.11 ± 0.157 h. Also, for the setting “oral PG–OJ extract, in words”, the “exposure level in lung tissue” value is “highest exposure level”.

As for `CC(C)=CCC[C@](C)(O)[C@H]1CC[C@]2(C)[C@@H]1[C@H](O)C[C@@H]1[C@@]3(C)CC[C@H](O)C(C)(C)[C@@H]3[C@@H](O[C@@H]3O[C@H](CO)[C@@H](O)[C@H](O)[C@H]3O)C[C@]12C` [Ginsenoside Rh1], under setting [1], the “AUC(0–t)” value was 1303.44 ± 70.16 ng·min/g and the “AUC(0–∞)” value stood at 1724.14 ± 411.48 ng·min/g. In addition, the “time to reach maximum concentration” value (lung tissue, oral PG–OJ extract) was not above 15 min. Under “male, BALB/c nude, mouse, in vivo, po, 10.2 g/kg, lung tissue, A549 tumor-bearing mice, intragastric PG–OJ extract 10.2 g/kg (6.8 g/kg elsewhere in the source), mean ± SD, n = 6, read-out: T1/2”, the half-life is 6.97 ± 4.9 h. Also, the half-life (male, BALB/c nude, mouse, in vivo, po, 10.2 g/kg, lung tissue, oral PG–OJ extract, read-out: half-life (converted)) was 6.9 h. Also, where the note is “male, BALB/c nude, mouse, in vivo, po, lung tissue, A549 tumor-bearing mice, intragastric PG–OJ extract 10.2 g/kg (6.8 g/kg elsewhere in the source), mean ± SD, n = 6, read-out: Cmax”, the Cmax is 8.98 ± 0.2 ng/g. The MRT last (male, BALB/c nude, mouse, in vivo, po, lung tissue, A549 tumor-bearing mice, intragastric PG–OJ extract 10.2 g/kg (6.8 g/kg elsewhere in the source), mean ± SD, n = 6) was 3.18 h. Besides, the Tmax (male, BALB/c nude, mouse, in vivo, po, lung tissue, A549 tumor-bearing mice, intragastric PG–OJ extract 10.2 g/kg (6.8 g/kg elsewhere in the source), mean ± SD, n = 6, read-out: Tmax (converted)) is 0.208 h. For the same compound, the “exposure level in lung tissue” value (oral PG–OJ extract, in words) is recorded as “extremely low”.

As to `CC1(C)CC[C@]2(C(=O)O[C@@H]3O[C@H](CO)[C@@H](O)[C@H](O)[C@H]3O)CC[C@]3(C)C(=CC[C@@H]4[C@@]5(C)CC[C@H](O[C@@H]6O[C@H](C(=O)O)[C@@H](O)[C@H](O)[C@H]6O[C@@H]6O[C@H](CO)[C@@H](O)[C@H](O)[C@H]6O)C(C)(C)[C@@H]5CC[C@]43C)[C@@H]2C1` [Ginsenoside Ro], under “mouse, in vivo, po”, the T1/2 was 4.2077 ± 0.198 h, the Tmax was 0.2083 ± 0.0482 h and the “time to reach maximum concentration” value is given as not above 15 min.

As for `Cc1c(O)c(C)c2c(c1O)C(=O)[C@H](Cc1ccc3c(c1)OCO3)CO2` [Methylophiopogonanone A], under “mouse, in vivo, po”, the T1/2 came to 20.3208 ± 6.0457 h and the Tmax amounted to 2.5 ± 0 h.

With `COc1ccc(C[C@@H]2COc3c(C)c(O)c(C)c(O)c3C2=O)cc1` [Methylophiopogonanone B], where the note is “mouse, in vivo, po”, the T1/2 stood at 6.5088 ± 1.6737 h and the Tmax amounted to 2.5 ± 0 h.
